The target of one series is T1, FGFR2 (Homo sapiens, UniProt P21802).
T1 construct: purchased Invitrogen
Briefly: Isolated enzyme FRET-based Z-Lyte kinase inhibition assay. Type of series: biochemical. To be noted: means from 3 independent experiments; read-out: Isolate Enzyme Inhibition IC50, FGFR2. The protocol: (§1) FGFR1-4 and the Z-Lyte Kinase Assay Kit were purchased from Invitrogen. The concentration gradients from 5.1×10^−11 to 1.0×10^−6 mol/L were used for all the test compounds. The experiments were performed according to the instructions of the manufacturer.
(§2) FGFR1-4 isolated enzyme activity was determined using the FRET-based Z-Lyte kinase inhibition assay. The data are the means from 3 independent experiments.

For another series, the target named is T2, FGFR3 (Homo sapiens, UniProt P22607).
T2 construct: purchased Invitrogen
T2 sequence (P22607 23-806): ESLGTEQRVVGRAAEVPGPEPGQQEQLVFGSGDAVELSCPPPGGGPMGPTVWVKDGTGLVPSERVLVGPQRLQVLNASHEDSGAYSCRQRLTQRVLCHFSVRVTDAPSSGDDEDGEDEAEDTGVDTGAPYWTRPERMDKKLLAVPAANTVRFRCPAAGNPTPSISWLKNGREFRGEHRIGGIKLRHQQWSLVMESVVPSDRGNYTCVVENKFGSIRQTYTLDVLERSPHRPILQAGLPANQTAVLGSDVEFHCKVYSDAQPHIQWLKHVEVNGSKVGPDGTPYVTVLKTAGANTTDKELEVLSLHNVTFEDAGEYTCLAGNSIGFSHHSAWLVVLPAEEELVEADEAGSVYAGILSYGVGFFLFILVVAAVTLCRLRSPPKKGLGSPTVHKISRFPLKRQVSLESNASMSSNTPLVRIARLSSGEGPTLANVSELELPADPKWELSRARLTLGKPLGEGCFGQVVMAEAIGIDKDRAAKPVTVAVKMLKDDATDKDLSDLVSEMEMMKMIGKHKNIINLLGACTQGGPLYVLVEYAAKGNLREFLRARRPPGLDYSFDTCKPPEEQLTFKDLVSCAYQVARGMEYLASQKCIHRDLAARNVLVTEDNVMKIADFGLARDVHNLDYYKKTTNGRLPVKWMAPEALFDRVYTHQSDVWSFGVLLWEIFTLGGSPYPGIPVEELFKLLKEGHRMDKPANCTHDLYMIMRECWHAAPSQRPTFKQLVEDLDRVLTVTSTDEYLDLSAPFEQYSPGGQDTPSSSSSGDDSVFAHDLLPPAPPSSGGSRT
The description is as above. It counts as biochemical. The conditions noted are these: means from 3 independent experiments; read-out: Isolate Enzyme Inhibition IC50, FGFR3. The method, then:
as §1, §2

Another series deals with T3, FGFR4 (Homo sapiens, UniProt P22455).
T3 construct: purchased Invitrogen
T3 sequence (P22455 22-802): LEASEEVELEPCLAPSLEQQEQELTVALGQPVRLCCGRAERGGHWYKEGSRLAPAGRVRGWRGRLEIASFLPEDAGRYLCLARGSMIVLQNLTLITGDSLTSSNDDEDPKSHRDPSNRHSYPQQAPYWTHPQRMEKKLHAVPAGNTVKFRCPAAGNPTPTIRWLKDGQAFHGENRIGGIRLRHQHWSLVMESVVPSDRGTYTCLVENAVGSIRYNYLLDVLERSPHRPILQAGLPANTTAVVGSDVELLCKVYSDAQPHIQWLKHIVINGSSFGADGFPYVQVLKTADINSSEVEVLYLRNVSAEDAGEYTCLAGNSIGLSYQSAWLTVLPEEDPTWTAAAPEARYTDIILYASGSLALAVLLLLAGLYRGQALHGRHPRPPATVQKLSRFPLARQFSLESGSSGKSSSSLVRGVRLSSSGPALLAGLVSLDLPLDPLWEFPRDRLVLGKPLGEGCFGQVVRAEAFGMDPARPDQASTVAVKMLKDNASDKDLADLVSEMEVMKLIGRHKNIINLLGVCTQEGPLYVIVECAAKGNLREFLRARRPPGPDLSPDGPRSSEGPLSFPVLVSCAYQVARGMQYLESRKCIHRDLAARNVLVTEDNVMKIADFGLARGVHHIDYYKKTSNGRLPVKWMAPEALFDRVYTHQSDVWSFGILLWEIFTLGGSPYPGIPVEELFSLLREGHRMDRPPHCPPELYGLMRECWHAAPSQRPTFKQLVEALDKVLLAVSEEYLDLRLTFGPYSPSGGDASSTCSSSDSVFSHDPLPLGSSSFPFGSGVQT
The series is described as above. It counts as biochemical. To be noted: means from 3 independent experiments; read-out: Isolate Enzyme Inhibition IC50, FGFR4. The method, then: as §1, §2

The subject of series [1] is FGFR2-amplified SUM52 breast cancer cells. The experiment in a line: Cell proliferation assay (SRB). Type of series: cell-based.
Series [2] has as its system FGFR4-amplified Hep3B hepatocellular carcinoma cells. The experiment in a line: Cell proliferation assay (SRB). The conditions noted are these: read-out: Cellular Anti-proliferative IC50, Hep3B. It counts as cell-based.
In series [3] the test system is FGFR3-amplified SW780 bladder cancer cells. The experiment in a line: Cell proliferation assay (SRB).
The next series has as its system SW780 cells. Briefly: Oxic and anoxic anti-proliferative activity of the prodrugs. Type of series: cell-based. The conditions noted are these: Homo sapiens, SW780; oxic conditions; read-out: Cellular Anti-proliferative IC50, SW780, Oxic.
The subject of series [4] is SW780 (FGFR3-amplified bladder cancer) xenograft. The experiment in a line: Anti-tumour activity, SW780 xenograft. It counts as in vivo, NIH-III nude mice. The conditions noted are these: 30 umol/kg, q3dx4, IP. The method, then: Specific pathogen-free homozygous female NIH-III nude mice (Charles River Laboratories, Wilmington, Mass.) were inoculated subcutaneously with a single cell suspension of SW780 cells (8×10^6 cells/100 μL with Matrigel; right flank) or SNU-16 cells (10×10^6 cells/100 μL; right flank). When tumour xenografts were established (typically 7-14 days for SW780 and 21-28 days for SNU-16) mice were randomized to treatment groups. Test compounds of the present invention were prepared in Water for Injection (WFI). Mice were dosed by intraperitoneal injection (0.01-0.03 ml/g) using the stated schedules and dose levels. […] Tumour size and body weights were measured at regular intervals. Tumour volume was calculated as […] (length×width^2)/6.

In another series the test system is H520 cells. The experiment in a line: Oxic and anoxic anti-proliferative activity of the prodrugs. The conditions noted are these: for Hypoxic Cytotoxicity Ratio (HCR), H520: ratio of oxic and anoxic IC50.
Another series deals with SUM52 cells. The description is as above. To be noted: for Hypoxic Cytotoxicity Ratio (HCR), SUM52: ratio of oxic and anoxic IC50.
The test system of series [5] is FGFR1 in H520 cells (phospho-ERK1/2). The experiment in a line: Drug washout Western blot assay, H520 cells. It counts as cell-based. The conditions noted are these: H520, 30 min, washout prior to FGF-stimulation. (In general: In western blotting, separated proteins are transferred to a membrane and probed.)
Series [6] concerns FGFR2 in SUM52 cells (phospho-ERK1/2). Briefly: Drug washout Western blot assay, SUM52 cells. It counts as cell-based. To be noted: SUM52; for phospho-ERK1/2 after extensive drug washout: washout prior to FGF-stimulation. The method, then: Cells were seeded on the day prior to drug treatment (1 million cells/well; 6-well plate).
Drug stocks were prepared in media using 1 mM or 10 mM DMSO stock solutions. Media was aspirated from each well and replaced with 2 ml of drug-free media for control wells or 2 ml of diluted drug for treated wells. Cells were exposed to drug for 30 min. Recombinant FGF (50 ng/well) was added to each well 15 minutes prior to the end of the drug exposure and protein was extracted as below.
Cells were exposed to drug for 30 min as above. Media was aspirated and each well was washed with 5 ml drug-free media. The wash media was aspirated and replaced with 2 ml drug-free media and cells incubated for a further 30 minutes, after which the wash protocol was repeated. Cells were incubated for a further 90 minutes in drug-free media. Recombinant FGF (50 ng/well) was added to each well 15 minutes prior to the end of the drug-free incubation and protein was extracted as below.
Cell lysates were prepared in 250 μL of RIPA lysis buffer containing protease inhibitor (1:100). After incubation on ice (30 min) and centrifugation (13,000 rpm, 5 min, 4° C.) the supernatants containing the proteins were stored (−20° C.) until required. Bicinchoninic acid (BCA) assay was used to determine the protein concentration of individual cell lysate samples.

Series [7] concerns FGFR3 in SW780 cells (phospho-ERK1/2). The experiment in a line: Drug washout Western blot assay, SW780 cells. It counts as cell-based. To be noted: SW780; for phospho-ERK1/2 after extensive drug washout: washout prior to FGF-stimulation.
Where [8] appears, read: SUM52, 120 h, read-out: Cellular Anti-proliferative IC50, SUM52, 5 days drug exposure.
The mark [9] stands for this setting: Homo sapiens, SW780, 120 h, read-out: Cellular Anti-proliferative IC50, SW780, 5 days drug exposure.
Setting [10] is: read-out: Cellular Anti-proliferative IC50, SUM52, 5 days drug exposure.
Where [11] appears, read: read-out: Cellular Anti-proliferative IC50, SW780, 5 days drug exposure.
Setting [12] is: read-out: Cellular Anti-proliferative IC50, H520, Anoxic, 4 hours of anoxia, remainder of assay oxic.
Where [13] appears, read: read-out: Cellular Anti-proliferative IC50, H520, Oxic, oxic conditions.
Where [14] appears, read: read-out: Cellular Anti-proliferative IC50, SUM52, Anoxic, 4 hours of anoxia, remainder of assay oxic.
Setting [15] is: read-out: Cellular Anti-proliferative IC50, SUM52, Oxic, oxic conditions.
Where [16] appears, read: 100 nM, 30 min, then FGF-stimulation.
The mark [17] stands for this setting: 30 min exposure, 100 nM, with and without washout.

Like-named read-outs stand apart in the source and are kept apart here.

T1 sequence (P21802 22-821): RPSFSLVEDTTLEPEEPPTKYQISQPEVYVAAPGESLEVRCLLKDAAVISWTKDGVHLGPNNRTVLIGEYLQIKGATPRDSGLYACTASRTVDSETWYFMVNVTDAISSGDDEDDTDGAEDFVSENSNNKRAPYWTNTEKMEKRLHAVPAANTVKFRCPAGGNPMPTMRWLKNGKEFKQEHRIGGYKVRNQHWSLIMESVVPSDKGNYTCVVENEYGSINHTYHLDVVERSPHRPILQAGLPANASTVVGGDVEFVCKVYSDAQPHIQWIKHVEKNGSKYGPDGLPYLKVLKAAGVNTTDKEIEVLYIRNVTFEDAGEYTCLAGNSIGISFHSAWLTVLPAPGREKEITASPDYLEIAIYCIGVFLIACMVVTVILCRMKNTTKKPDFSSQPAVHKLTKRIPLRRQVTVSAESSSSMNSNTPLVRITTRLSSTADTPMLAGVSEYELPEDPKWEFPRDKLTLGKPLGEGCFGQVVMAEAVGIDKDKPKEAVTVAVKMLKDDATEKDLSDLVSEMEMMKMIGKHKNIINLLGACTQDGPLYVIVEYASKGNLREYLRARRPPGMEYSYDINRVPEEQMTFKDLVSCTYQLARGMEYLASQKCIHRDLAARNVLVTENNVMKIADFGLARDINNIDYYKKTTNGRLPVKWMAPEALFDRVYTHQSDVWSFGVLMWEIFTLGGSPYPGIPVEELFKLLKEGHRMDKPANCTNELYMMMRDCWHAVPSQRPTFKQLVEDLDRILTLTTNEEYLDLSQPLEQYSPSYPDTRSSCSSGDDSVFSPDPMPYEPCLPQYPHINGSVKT

`CNc1ncc2c(n1)N([C@@H]1CCN(C(=O)/C=C/CN(C)C)C1)C(=O)N(c1c(Cl)c(OC)cc(OC)c1Cl)C2` [Compound 102, (R,E)-3-(2,6-dichloro-3,5-dimethoxyphenyl)-1-(1-(4-(dimethylamino)but-2-enoyl)pyrrolidin-3-yl)-7-(methylamino)-3,4-dihydropyrimido[4,5-d]pyrimidin-2(1H)-one]: the IC50 (in general, the midpoint of a concentration-inhibition curve) is 15 nM at FGFR2; 703 nM on FGFR3; above 1000 nM on FGFR4; 51 nM in series [1] (setting [8]); 1430 nM in [2] (Homo sapiens, Hep3B); 700 nM in series [3] (setting [9]).

On to `CNc1ncc2c(n1)N([C@H]1CCCN(C(=O)/C=C/CN(C)C)C1)C(=O)N(c1c(Cl)c(OC)cc(OC)c1Cl)C2` [Compound 100, (S,E)-3-(2,6-dichloro-3,5-dimethoxyphenyl)-1-(1-(4-(dimethylamino)but-2-enoyl)piperidin-3-yl)-7-(methylamino)-3,4-dihydropyrimido[4,5-d]pyrimidin-2(1H)-one], for which the IC50 in series [1] (setting [10]) was 3.3 nM; in series [2] (Homo sapiens, Hep3B) it was 245 nM; in series [3] (setting [11]), 28 nM.

Consider `COc1cc(OC)c(Cl)c(-c2cc3cnc(Nc4ccccc4)nc3n(C3CCN(C(=O)/C=C/C[N+](C)(C)Cc4c([N+](=O)[O-])ncn4C)CC3)c2=O)c1Cl.[Br-]` [Compound 211, (E)-4-(4-(6-(2,6-dichloro-3,5-dimethoxyphenyl)-7-oxo-2-(phenylamino)pyrido[2,3-d]pyrimidin-8(7H)-yl)piperidin-1-yl)-N,N-dimethyl-N-((1-methyl-4-nitro-1H-imidazol-5-yl)methyl)-4-oxobut-2-en-1-aminium bromide], for which the IC50 was 754 nM with SW780 cells; 41 nM with H520 cells (setting [12]); 817 nM with H520 cells (setting [13]); 12 nM with SUM52 cells (setting [14]); 199 nM in the series with SUM52 cells (setting [15]). Further, in series [4], the “anti-tumour activity (median tumour growth delay)” value is on record as “significant anti-tumour activity”. In addition, the “Hypoxic Cytotoxicity Ratio (HCR), H520” value in the series with H520 cells is on record as 20. Further, the “Hypoxic Cytotoxicity Ratio (HCR), SUM52” value in the series on SUM52 cells was 16.

Consider `CNc1ncc2c(n1)N([C@H]1CCN(C(=O)/C=C/CN(C)C)C1)C(=O)N(c1c(Cl)c(OC)cc(OC)c1Cl)C2` [Compound 103, (S,E)-3-(2,6-dichloro-3,5-dimethoxyphenyl)-1-(1-(4-(dimethylamino)but-2-enoyl)pyrrolidin-3-yl)-7-(methylamino)-3,4-dihydropyrimido[4,5-d]pyrimidin-2(1H)-one], for which the IC50 on FGFR2 is 3.3 nM; on FGFR3, 17 nM; at FGFR4, 287 nM; in series [1] (setting [8]) it was 4.8 nM; in series [2] (Homo sapiens, Hep3B) it was 48 nM; in series [3] (setting [9]), 31 nM. Also, the “phospho-ERK1/2 after extensive drug washout” value is “restoration” in series [5] (100 nM); “restoration” in series [5] (1000 nM); “restoration” in series [6] (100 nM, 30 min); “restoration” in series [6] (1000 nM, 30 min); “restoration” in [7] (100 nM, 30 min); “restoration” in series [7] (1000 nM, 30 min). In addition, the “inhibition of phosphorylation of ERK1/2, no washout” value in [6] (setting [16]) and in [7] (setting [16]) was “complete inhibition” throughout. Besides, the “reversible or irreversible inhibition of FGFR2 in cells” value in series [6] (setting [17]) is “reversible inhibitor”. Besides, in series [7] (setting [17]), the “reversible or irreversible inhibition of FGFR3 in cells” value is reported as “reversible inhibitor”.

With `CNc1ncc2c(n1)N([C@H]1CCCN(C(=O)/C=C/CN(C)C)C1)C(=O)N(c1c(Cl)c(OC)cc(OC)c1Cl)C2` [Compound 101, (S,E)-3-(2,6-dichloro-3,5-dimethoxyphenyl)-1-(1-(4-(dimethylamino)but-2-enoyl)piperidin-3-yl)-7-(methylamino)-3,4-dihydropyrimido[4,5-d]pyrimidin-2(1H)-one], the IC50 is below 100 nM on FGFR4, 9 nM in series [1] (setting [10]), 163 nM in series [2] and 59 nM in series [3] (setting [11]).

On to `COc1cc(OC)c(Cl)c(-c2cc3cnc(NC(C)C)nc3n(C3CCN(C(=O)/C=C/C[N+](C)(C)Cc4c([N+](=O)[O-])ncn4C)CC3)c2=O)c1Cl.[Br-]` [Compound 209, (E)-4-(4-(6-(2,6-dichloro-3,5-dimethoxyphenyl)-2-(isopropylamino)-7-oxopyrido[2,3-d]pyrimidin-8(7H)-yl)piperidin-1-yl)-N,N-dimethyl-N-((1-methyl-4-nitro-1H-imidazol-5-yl)methyl)-4-oxobut-2-en-1-aminium bromide], for which the IC50 with SW780 cells came out at 1570 nM; in the series on H520 cells (setting [12]) it was 41 nM; with H520 cells (setting [13]) it was 1480 nM; with SUM52 cells (setting [14]), 4 nM; with SUM52 cells (setting [15]), 269 nM. Also, in series [4], the “anti-tumour activity (median tumour growth delay)” value is recorded as “significant anti-tumour activity”. In addition, the “Hypoxic Cytotoxicity Ratio (HCR), H520” value with H520 cells was found to be 36. Moreover, the “Hypoxic Cytotoxicity Ratio (HCR), SUM52” value with SUM52 cells is listed as 68.

The record behind these values is patent publication US11192890B2, “FGFR kinase inhibitors and pharmaceutical uses” (AUCKLAND UNISERVICES LIMITED, priority 2017, dated 2021).
